Earlier results, collected in patent US5574070A, “Substituted guanidines having high binding to the sigma receptor and the use thereof” (priority 1993, dated 1996).

Tests used:
dopamine synthesis = conditions: cited from earlier work
anxiety = conditions: in vivo; cited from earlier work
[1] = system: apomorphine-induced mesolimbic behaviors; conditions: without altering the intensity of stereotypic behaviors; cited from earlier work
[2] = system: dopamine-stimulated production of cAMP; conditions: homogenates of rat striatum and olfactory tubercle; cited from earlier work

SMILES: C[C@@H]1CN(CCCn2c3ccccc3c3ccccc32)C[C@H](C)N1.Cl.Cl [rimcazole, cis-9-[3-(3,5-dimethyl-1-piperazinyl)propyl]carbazole dihydrochloride]
- effect on rate of dopamine synthesis (dopamine synthesis): does not accelerate the rate of dopamine synthesis
- anxiolytic activity (anxiety): determined to have anxiolytic activity
- antagonism of apomorphine-induced mesolimbic behaviors [1]: ability to antagonize apomorphine-induced mesolimbic behaviors selectively
- effect on dopamine-stimulated cAMP [2]: does not affect dopamine-stimulated production of cAMP
